For assay [1], the target named is T1, Retinoic acid receptor beta (Homo sapiens, UniProt P10826).
T1 sequence (P10826 whole entry): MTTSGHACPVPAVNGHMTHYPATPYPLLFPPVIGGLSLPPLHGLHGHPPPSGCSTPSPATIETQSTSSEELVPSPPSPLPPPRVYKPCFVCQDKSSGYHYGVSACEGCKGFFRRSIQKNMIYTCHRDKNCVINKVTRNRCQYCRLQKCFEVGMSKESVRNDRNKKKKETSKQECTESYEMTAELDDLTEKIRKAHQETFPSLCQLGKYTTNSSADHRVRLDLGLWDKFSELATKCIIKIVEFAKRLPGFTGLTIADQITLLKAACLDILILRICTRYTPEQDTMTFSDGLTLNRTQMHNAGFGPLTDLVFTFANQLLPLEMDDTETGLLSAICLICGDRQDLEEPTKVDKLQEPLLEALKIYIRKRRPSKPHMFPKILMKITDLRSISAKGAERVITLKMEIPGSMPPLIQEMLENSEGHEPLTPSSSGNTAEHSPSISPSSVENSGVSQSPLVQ
As to the kind of experiment: Inhibition of [3H]ATRA binding to baculovirus expressed Retinoic acid receptor RAR beta.

Assay [2] addresses T1, Retinoic acid receptor beta. As to the kind of experiment: Transcriptional activation in CV-1 cells expressing Retinoic acid receptor RAR beta. Type of assay: cell-based.
For assay [3], the target named is T2, Retinoic acid receptor beta (Homo sapiens) (UniProt P10826).
T2 sequence (whole entry): T1 sequence (P10826 whole entry)
The assay can be described thus: Relative efficacy for Retinoic acid receptor beta compared to maximal retinoic acid response.

The target in assay [4] is T3, Retinoic acid receptor gamma (Homo sapiens, UniProt P13631).
T3 sequence (P13631 whole entry): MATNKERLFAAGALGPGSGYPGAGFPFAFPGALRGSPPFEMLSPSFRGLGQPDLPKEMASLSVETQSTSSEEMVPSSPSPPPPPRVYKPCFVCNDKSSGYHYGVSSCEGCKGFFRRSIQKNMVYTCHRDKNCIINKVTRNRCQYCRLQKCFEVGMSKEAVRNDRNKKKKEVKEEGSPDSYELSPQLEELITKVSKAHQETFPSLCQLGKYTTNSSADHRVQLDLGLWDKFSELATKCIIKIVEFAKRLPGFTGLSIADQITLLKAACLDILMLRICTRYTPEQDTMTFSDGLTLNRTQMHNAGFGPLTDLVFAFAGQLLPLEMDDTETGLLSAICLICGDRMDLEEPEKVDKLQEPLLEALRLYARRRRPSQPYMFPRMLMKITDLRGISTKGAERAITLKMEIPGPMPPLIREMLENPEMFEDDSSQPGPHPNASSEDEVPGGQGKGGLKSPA
The assay can be described thus: Inhibition of [3H]ATRA binding to baculovirus expressed Retinoic acid receptor RAR gamma.

In assay [5] the target is T4, Retinoic acid receptor alpha (Homo sapiens, UniProt P10276).
T4 sequence (P10276 whole entry): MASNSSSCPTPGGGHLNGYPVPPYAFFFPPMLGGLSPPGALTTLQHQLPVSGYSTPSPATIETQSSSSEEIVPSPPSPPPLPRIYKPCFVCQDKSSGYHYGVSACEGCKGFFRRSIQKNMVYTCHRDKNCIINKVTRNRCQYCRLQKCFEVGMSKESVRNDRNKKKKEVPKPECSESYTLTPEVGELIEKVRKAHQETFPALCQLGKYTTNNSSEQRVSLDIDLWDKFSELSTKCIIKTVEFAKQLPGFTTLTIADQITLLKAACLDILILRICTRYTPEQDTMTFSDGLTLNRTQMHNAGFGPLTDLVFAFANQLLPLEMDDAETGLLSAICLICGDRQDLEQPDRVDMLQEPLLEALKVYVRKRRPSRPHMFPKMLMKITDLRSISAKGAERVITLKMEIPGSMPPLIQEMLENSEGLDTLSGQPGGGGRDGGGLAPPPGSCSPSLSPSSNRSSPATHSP
As to the kind of experiment: Inhibition of [3H]ATRA binding to baculovirus expressed Retinoic acid receptor RAR alpha.

Regarding `CC1(C)CC=C(c2cccs2)c2cc(C(=O)Oc3ccc(C(=O)O)cc3)ccc21`, the Kd was 189 nM in assay [1], 1490 nM in assay [4] and 303 nM in assay [5]. This compound also returned an EC50 in assay [2] of 26 nM. In assay [3], this compound showed an Eff of 47%.
The like results for `CC1(C)CC=C(c2cccs2)c2cc(C(=O)Nc3ccc(C(=O)O)cc3)ccc21` were, in that order, 996 nM, greater than 10000 nM, 94 nM, 115 nM and 61%.
The like results for `CC1(C)CC=C(c2cccs2)c2cc(C#Cc3ccc(C(=O)O)cc3)ccc21` were, in that order, 20 nM, 104 nM, 129 nM, 25 nM and 32%.
